This is an account of results in patent US20110165145A1, “IGF-II/IGF-IIE BINDING PROTEINS” (priority 2008, published 2011).

By pIC50 is commonly meant −log10 of the IC50, conventionally taken in molar units.

One data set has as its system Hep3B cells. Description: Hep3B anchorage dependent colony formation assay. It is filed as cell-based. The following applies: two concentrations; 10% FBS; 1 week. The source says: Colonies>50 cells were scored in three independent experiments, each with triplicate dishes.
Data set [1] has as its target T1, IGF-II (Homo sapiens, UniProt P01344).
T1 construct: IGF-II (amino acids 1-67)
Description: SPR affinity of DX-2647 (IgG captured on anti-human Fc chip), IGF-II. To be noted: 1:1 binding model.

In data set [2] the target is T2, IGF-IIE (Homo sapiens, UniProt P01344).
T2 construct: the construct comprising amino acids 1-104, which encompass the E domain
Briefly: SPR affinity of DX-2647 (IgG captured on anti-human Fc chip), IGF-IIE. The following applies: 1:1 binding model.

In a further data set the target is IGF-I (Homo sapiens, UniProt P05019). Description: SPR affinity of DX-2647, IGF-I. The following applies: 1:1 binding model. The source says:
IGF-II and the related growth factor, IGF-I, share 70% homology at the amino acid level.

For data set [3], the target named is T1, IGF-II. Description: SPR assays of DX-2647 binding to IGF-II complexed with receptors/IGFBPs. An excerpt:
(§1) While the IGF-IR and IR-A are the principal mediators of the biological activity of IGF-II, the protein can bind with high affinity to a number of other proteins that include a family of six serum IGF-binding proteins (IGFBP 1-6), and the cell-surface mannose-6-phosphate receptor (IGF-IIR).
On the technique in general: SPR reads the build-up and loss of mass on a sensor chip optically.

The target of data set [4] is T2, IGF-IIE. Description: SPR assays of DX-2647 binding to IGF-IIE complexed with receptors/IGFBPs. The following applies: FIGS. 5A and 5B.
From the text: as §1

Data set [5] concerns HepG2 human hepatoma cells. Briefly: HepG2 anchorage-independent colony formation in soft agar. Type of data set: cell-based. The following applies: 10% FCS, two weeks. As for the experimental part:
Cells were seeded in growth medium plus 10% FCS in soft agar in the presence of increasing concentrations of antibody. Colonies>50 cells were counted after two weeks. […]

Data set [6] concerns human SKUT-1 myosarcoma cell. Description: Cisplatin (CDDP)-induced cytotoxicity in SKUT-1 cells (CellTitreBlue). Type of data set: cell-based. To be noted: 20% FCS, 48 hours.
In another data set the test system is Colo205 cells. Briefly: Colo205 cell proliferation in complete medium containing 10% FBS. To be noted: 2 μM, 4 days. It is filed as cell-based. On the procedure:
The plate was placed in a 37° C. incubator with 5% CO2 for 4 days. Proliferation was measured by CellTiter 96Aqueous One Solution Reagent (Promega). […] Colo205 cells have two cell populations in culture vessels.

Data set [7] relates to IGF-II induced Colo205 cell proliferation. Briefly: IGF-II induced Colo205 cell proliferation in serum free medium. Type of data set: cell-based. To be noted: 2 nM IGF-II, 96 h. As for the experimental part:
In this experiment, cells were cultured in serum free medium containing 2 nM IGF-II. […] Neutralizing IGF-II antibody (R&D Systems) was used at 333 nM as a positive control. […] IGF-II neutralizing antibody from R&D at 333 nM was used as a positive control. The plate was placed in a 37° C. incubator with 5% CO2 for 4 days. Proliferation was measured by CellTiter 96Aqueous One Solution Reagent (Promega).

In data set [8] the test system is IGF-II-induced IGF-1R phosphorylation in HepG2 cells. Briefly: IGF-II-induced IGF-1R phosphorylation in HepG2 cells (IP/WB). The following applies: 10 min. It is filed as cell-based. As for the experimental part: (§2) After being washed twice with ice-cold PBS containing 1 mM sodium orthovanadate, cells were lysed and immunoprecipitated with anti-IGF-IR antibody. Immunoprecipitated proteins were resolved in a 4-12% Bis-tris gel, and transferred to a PVDF membrane. The membrane was probed with anti-phospho-IGF-IR (p-IGF-1R) antibody first, and then stripped and re-probed with anti-IGF-IR antibody for detection of total IGF-1R proteins.

The test system of data set [9] is IGF-II-induced IGF-1R phosphorylation in Hep3B cells. Description: IGF-II-induced IGF-1R phosphorylation in Hep3B cells (IP/WB). It is filed as cell-based. As for the experimental part: as §2
Data set [10] concerns IGF-IR phosphorylation in Colo205 cells. Description: IGF-IR phosphorylation in Colo205 cells. It is filed as cell-based. The source says: Upon ligand binding, IGF-1R undergoes autophosphorylation on tyrosine residues of the two β-subunits.
Data set [11] relates to IGF-I induced IGF-IR phosphorylation. Description: IGF-I induced IGF-IR phosphorylation in Hep3B cells (IP/WB). It is filed as cell-based. To be noted: 10 nM DX-2647. As for the experimental part:
as §2

Data set [12] has as its system autocrine IGF-II induced IGF-1R phosphorylation in Hep3B cells. Briefly: Autocrine (endogenous) IGF-II induced IGF-1R phosphorylation in Hep3B cells (IP/WB). The following applies: 10 nM, 48 h serum free. It is filed as cell-based. On the procedure:
Hep3B cells synthesize and secrete IGF-II which in turn binds IGF-1R and induces IGF-1R phosphorylation in an autocrine fashion. The autocrine IGF-II induced IGF-1R phosphorylation can be detected by IP/WB analysis after 48 h serum starvation of cells. […] To perform the experiments, Hep3B cells were seeded and cultured for 24 h. […] After being washed twice with ice-cold PBS containing 1 mM sodium orthovanadate, cells were lysed and immunoprecipitated with anti-IGF-IR antibody. Immunoprecipitated proteins were resolved in a 4-12% Bis-tris gel, and transferred to a PVDF membrane. The membrane was probed with anti-phospho-IGF-IR (p-IGF-1R) antibody first, and then stripped and re-probed with anti-IGF-IR antibody for detection of total IGF-1R proteins.

The subject of another data set is HepG2 cells. Description: HepG2 anchorage dependent colony formation. Type of data set: cell-based. To be noted: 1 nM; 10% FBS; 7 days. On the procedure: HepG2 cells were seeded into a 6-well plate at 1000 cells/well in 2 ml of culture medium containing 10% FBS. […] Isotype control IgG (Ctrl. IgG) was used at 100 nM. After incubation cells were fixed and stained with crystal violet blue. Five pictures were taken randomly from each well and data were analyzed using the MetaMorph software. The results are summarized graphically in FIG. 10.

The subject of data set [13] is human breast cancer cells. To be noted: immunodeficient mice; cited from earlier work.

pIC50: −log10 of the molar value.

T2 sequence (P01344 25-128): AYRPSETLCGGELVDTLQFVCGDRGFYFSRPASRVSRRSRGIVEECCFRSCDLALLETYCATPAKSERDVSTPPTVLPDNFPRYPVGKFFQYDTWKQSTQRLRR
T1 sequence (P01344 25-91): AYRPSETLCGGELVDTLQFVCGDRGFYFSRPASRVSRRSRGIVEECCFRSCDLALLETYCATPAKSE
Chain of IGF-I (P05019 49-118 limits assumed, species assumed): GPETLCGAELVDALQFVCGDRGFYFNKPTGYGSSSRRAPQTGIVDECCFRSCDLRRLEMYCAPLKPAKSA

Take “DX-2647: IGF II/IGF IIE inhibitory antibody germlined from 566A-M0064-F02 parental clone; SEQ ID NO: 59 and 60”: the “inhibition of colony formation of Hep3B cells” value in the data set on Hep3B cells is reported as “inhibited colony formation in a dose-dependent manner”. Further, in the data set with IGF-II [1], the “ka IGF-II” value is 1.06 E6 M-1s-1 and the “kd IGF-II” value is 2.38 E-5 s-1. In the data set with IGF-IIE [2], the “ka IGF-IIE” value is reported as 2.06 E6 M-1s-1 and the “kd IGF-IIE” value is “less than 2 E-5 s-1”. Also, in the data set with IGF-I, the “ka IGF-I” value turned out to be 5.8e+06 M⁻¹ s⁻¹ and the “kd IGF-I” value worked out at 0.1 s⁻¹. In the data set with IGF-II [3] (FIGS. 5A and 5B), the “ability to bind IGF-II complexed with the IGFBPs assayed” value was “inhibited” and the “blocking of IGF-II binding to all three cell-surface receptors for IGF-II” value was “blocks the binding”. In the data set with IGF-II [3] (Fc-captured antibody, FIG. 5A), the “binding to IGFBP-1 alone” value is on record as “does not bind”; the “binding to free IGF-II” value is listed as “binds free IGF-II”; the “binding to pre-formed complex of IGF-II and IGFBP-1” value was “does not bind”. In addition, in the data set with IGF-IIE [4], the “ability to bind IGF-IIE complexed with the IGFBPs assayed” value is “inhibited” and the “blocking of IGF-IIE binding to all three cell-surface receptors for IGF-II” value is given as “blocks the binding”. Also, in data set [5], the “inhibition of HepG2 colony formation in soft agar” value was “strongly inhibited”. Moreover, in data set [5] (±0.74 standard error, read-out: mean IC50, anchorage-independent growth of HepG2 cells), the pIC50 was 8.82. In addition, the “enhancement of cisplatin (CDDP)-induced cellular cytotoxicity” value in data set [6] is “potently enhanced”. The “inhibition of Colo205 proliferation in complete growth medium” value in the data set with Colo205 cells is listed as “significantly inhibited”. Also, the “inhibition of IGF-II induced Colo205 cell proliferation” value in [7] was “inhibited”. Besides, the “lowest concentration showing maximum potency in inhibiting IGF-II stimulated Colo205 proliferation” value in data set [7] (1 nM to 100 nM tested) came to 10 nM. Moreover, the “inhibition of IGF-II-induced IGF-1R phosphorylation” value in data set [8] (0.3 nM DX-2647, IGF-II 2.6 nM) is on record as “Partial inhibition”. For the same substance, in [8] (3 nM DX-2647, IGF-II 2.6 nM), the “inhibition of IGF-II-induced IGF-1R phosphorylation” value is given as “complete inhibition”. Further, the “inhibition of IGF-II-induced IGF-1R phosphorylation” value in data set [9] (0.1 nM DX-2647) is reported as “partial inhibition”. For the same substance, in data set [9] (1 nM DX-2647), the “inhibition of IGF-II-induced IGF-1R phosphorylation” value is reported as “complete inhibition”. Besides, the “effective concentration for inhibition of IGF-IR phosphorylation” value in data set [10] worked out at 10 nM. The “inhibition of IGF-I induced IGF-IR phosphorylation” value in data set [11] is reported as “failed to show significant inhibition”. Further, in [12], the “inhibition of autocrine IGF-II induced IGF-1R phosphorylation” value was “significant inhibitory effect”. Besides, the “inhibition of colony-forming ability of HepG2 cells” value in the data set on HepG2 cells is listed as “significantly inhibited”.
In the case of “pegvisomant: PEGylated analog of human growth hormone, 191 amino acid residues, acting as GH receptor antagonist”, the “growth of human breast cancer cells grown as xenografts” value in data set [13] is recorded as “inhibits the growth”.
